From patent publication US20100285959A1, “HERBICIDAL MIXTURES” (priority 2006, published 2010)

How the values were obtained:
[1] = tested on: Italian cocklebur (XANSI); experiment: Test 12 field trial, preemergence; format: in vivo, Xanthium strumarium ssp. italicum; details: Cpd 2 or Cpd 1 62 g a.i./ha, Diuron 2000 g a.i./ha
Text: (§1) In early-mid spring season, corn seeds (hybrid ‘Pioneer 3041’) were planted 5 cm deep and sugarcane nodes (variety RB-72.454) were planted 10 cm deep in separate plots in a clay soil having 2.6% organic matter and a pH of 5.6. Plots were 24 m long by 1.5 m wide with rows spaced 80 cm (corn) or 140 cm (sugarcane) apart. Corn seeds were spaced 15 cm apart and sugarcane nodes were spaced 10 cm apart within the rows. At the same time, weed seeds were broadcast over the surface of separate plots without a crop, one weed species per plot. The weed plots were rotary tilled to incorporate the weed seeds to a variety of depths. The field was managed using conventional tillage practices.

[2] = tested on: Ipomoea grandiflora (IPOGF); experiment: Test 12 field trial, preemergence; format: in vivo; details: Cpd 2 or Cpd 1 62 g a.i./ha, Diuron 2000 g a.i./ha
Text: as §1

[3] = tested on: wild spikenard (HPYSU); experiment: Test 12 field trial, preemergence; format: in vivo; details: Cpd 2 or Cpd 1 62 g a.i./ha, Diuron 2000 g a.i./ha
Text: as §1

[4] = tested on: wild poinsettia (EPHHL); experiment: Test 12 field trial, preemergence; format: in vivo, Euphorbia heterophylla; details: Cpd 2 or Cpd 1 62 g a.i./ha, Diuron 2000 g a.i./ha
Text: as §1

[5] = tested on: Florida beggarweed (DEDTO); experiment: Test 12 field trial, preemergence; format: in vivo, Desmodium tortuosum; details: Cpd 2 or Cpd 1 62 g a.i./ha, Diuron 2000 g a.i./ha
Text: as §1

[6] = tested on: common purslane (POROL); experiment: Test 12 field trial, preemergence; format: in vivo, Portulaca oleracea; details: Cpd 2 or Cpd 1 62 g a.i./ha, Diuron 2000 g a.i./ha
Text: as §1

[7] = tested on: flint corn (ZEAMI); experiment: Test 12 field trial, preemergence; format: in vivo, Zea mays L. ssp. indurata; details: Cpd 2 or Cpd 1 62 g a.i./ha, Diuron 2000 g a.i./ha
Text: as §1

[8] = tested on: broadleaf buttonweed (BOILF); experiment: Test 12 field trial, preemergence; format: in vivo, Borreria latifolia; details: Cpd 2 or Cpd 1 62 g a.i./ha, Diuron 2000 g a.i./ha
Text: as §1

[9] = tested on: common blackjack (BIDPI); experiment: Test 12 field trial, preemergence; format: in vivo, Bidens pilosa; details: Cpd 2 or Cpd 1 62 g a.i./ha, Diuron 2000 g a.i./ha
Text: as §1

[10] = tested on: common sugarcane (SACOF); experiment: Test 12 field trial, preemergence; format: in vivo, Saccharum officinarum; details: Cpd 2 or Cpd 1 62 g a.i./ha, Diuron 2000 g a.i./ha
Text: as §1

[11] = tested on: slender amaranth (AMAVI); experiment: Test 12 field trial, preemergence; format: in vivo, Amaranthus viridis; details: Cpd 2 or Cpd 1 62 g a.i./ha, Diuron 2000 g a.i./ha
Text: as §1

[12] = tested on: sicklepod (CASOB); experiment: Test 12 field trial, preemergence; format: in vivo, Cassia obtusifolia; details: Cpd 2 or Cpd 1 62 g a.i./ha, Diuron 2000 g a.i./ha
Text: as §1

[13] = tested on: arrowleaf sida (SIDRH); experiment: Test 12 field trial, preemergence; format: in vivo, Sida rhombifolia; details: Cpd 2 or Cpd 1 62 g a.i./ha, Diuron 2000 g a.i./ha
Text: as §1

[14] = tested on: tropical spiderwort (COMBE); experiment: Test 12 field trial, preemergence; format: in vivo, Commelina benghalensis; details: Cpd 2 or Cpd 1 62 g a.i./ha, Diuron 2000 g a.i./ha
Text: as §1

[15] = tested on: tropical spiderwort (COMBE); experiment: Test 11 field trial, preemergence; format: in vivo, Commelina benghalensis; set-up: scale not given here; details: atrazine 1500 or metolachlor 2500 g a.i./ha alone
Text: (§2) Corn seeds (hybrid ‘Pioneer 3041’) were planted in mid spring season, 5 cm deep in a clay soil having 2.6% organic matter and a pH of 5.6. Plots were 8 m long by 1.5 m wide with rows spaced 80 cm apart. Seeds were spaced 15 cm apart within the rows. The field was managed using conventional tillage practices. […] Treatments consisted of Compound 2 or
(§3) Goosegrass was not evaluated 16 or 91 days after application.

[16] = tested on: Surinam grass (BRADC); experiment: Test 11 field trial, preemergence; format: in vivo, Brachiaria decumbens; set-up: scale not given here; details: atrazine 1500 or metolachlor 2500 g a.i./ha alone
Text: as §2, §3

[17] = tested on: common blackjack (BIDPI); experiment: Test 11 field trial, preemergence; format: in vivo, Bidens pilosa; set-up: scale not given here; details: atrazine 1500 or metolachlor 2500 g a.i./ha alone
Text: as §2, §3

[18] = tested on: alexandergrass (BRAPL); experiment: Test 11 field trial, preemergence; format: in vivo, Brachiaria plantaginea; set-up: scale not given here; details: atrazine 1500 or metolachlor 2500 g a.i./ha alone
Text: as §2, §3

[19] = tested on: flint corn (ZEAMI); experiment: Test 11 field trial, preemergence; format: in vivo, Zea mays L. ssp. indurata; set-up: scale not given here; details: atrazine 1500 or metolachlor 2500 g a.i./ha alone
Text: as §2, §3

[20] = tested on: arrowleaf sida (SIDRH); experiment: Test 11 field trial, preemergence; format: in vivo, Sida rhombifolia
Text: as §2, §3

[21] = tested on: Brazilian crabgrass (DIGHO); experiment: Test 11 field trial, preemergence; format: in vivo, Digitaria horizontalis; set-up: scale not given here; details: atrazine 1500 or metolachlor 2500 g a.i./ha alone
Text: as §2, §3

[22] = tested on: southern sandbur (CCHEC); experiment: Test 11 field trial, preemergence; format: in vivo, Cenchrus echinatus; set-up: scale not given here; details: atrazine 1500 or metolachlor 2500 g a.i./ha alone
Text: as §2, §3

[23] = tested on: goosegrass (ELEIN); experiment: Test 11 field trial, preemergence; format: in vivo, Eleusine indica
Text: as §2, §3

[24] = tested on: Ipomoea grandiflora (IPOGF); experiment: Test 11 field trial, preemergence; format: in vivo
Text: as §2, §3

[25] = 16 DAA, atrazine 1500 or metolachlor 2500 g a.i./ha alone
[26] = 30 DAA, atrazine 1500 or metolachlor 2500 g a.i./ha alone
[27] = 44 DAA, 2500 g a.i./ha, scale 0 to 100
[28] = 62 DAA, 2500 g a.i./ha, scale 0 to 100
[29] = 91 DAA, 2500 g a.i./ha, scale 0 to 100

CN(C)C(=O)Nc1ccc(Cl)c(Cl)c1 [Diuron]
XANSI Obs ([1]; 15 DAA): 60 | XANSI Obs ([1]; 29 DAA): 40 | XANSI Obs ([1]; 48 DAA): 40 | XANSI Obs ([1]; 61 DAA): 40 | IPOGF Obs ([2]; 15 DAA): 80 | IPOGF Obs ([2]; 29 DAA): 80 | IPOGF Obs ([2]; 48 DAA): 40 | IPOGF Obs ([2]; 61 DAA): 40 | HPYSU Obs ([3]; 15 DAA): 75 | HPYSU Obs ([3]; 29 DAA): 60 | HPYSU Obs ([3]; 48 DAA): 40 | HPYSU Obs ([3]; 61 DAA): 20 | EPHHL Obs ([4]; 15 DAA): 60 | EPHHL Obs ([4]; 29 DAA): 40 | EPHHL Obs ([4]; 48 DAA): 20 | EPHHL Obs ([4]; 61 DAA): 40 | DEDTO Obs ([5]; 15 DAA): 100 | DEDTO Obs ([5]; 29 DAA): 100 | DEDTO Obs ([5]; 48 DAA): 100 | DEDTO Obs ([5]; 61 DAA): 95 | POROL Obs ([6]; 15 DAA): 100 | POROL Obs ([6]; 29 DAA): 100 | POROL Obs ([6]; 48 DAA): 100 | POROL Obs ([6]; 61 DAA): 100 | ZEAMI Obs ([7]; 15 DAA): 20% | ZEAMI Obs ([7]; 29 DAA): 20% | ZEAMI Obs ([7]; 48 DAA): 20% | ZEAMI Obs ([7]; 61 DAA): 25% | BOILF Obs ([8]; 15 DAA): 99 | BOILF Obs ([8]; 29 DAA): 100 | BOILF Obs ([8]; 48 DAA): 100 | BOILF Obs ([8]; 61 DAA): 95 | BIDPI Obs ([9]; 15 DAA): 100 | BIDPI Obs ([9]; 29 DAA): 100 | BIDPI Obs ([9]; 48 DAA): 100 | BIDPI Obs ([9]; 61 DAA): 100 | SACOF Obs ([10]; 15 DAA): 0 | SACOF Obs ([10]; 29 DAA): 0 | SACOF Obs ([10]; 48 DAA): 0 | SACOF Obs ([10]; 61 DAA): 5 | AMAVI Obs ([11]; 15 DAA): 100 | AMAVI Obs ([11]; 29 DAA): 100 | AMAVI Obs ([11]; 48 DAA): 100 | AMAVI Obs ([11]; 61 DAA): 100 | CASOB Obs ([12]; 15 DAA): 90 | CASOB Obs ([12]; 29 DAA): 90 | CASOB Obs ([12]; 48 DAA): 60 | CASOB Obs ([12]; 61 DAA): 40 | SIDRH Obs ([13]; 15 DAA): 100 | SIDRH Obs ([13]; 29 DAA): 100 | SIDRH Obs ([13]; 48 DAA): 100 | SIDRH Obs ([13]; 61 DAA): 100 | COMBE Obs ([14]; 15 DAA): 99 | COMBE Obs ([14]; 29 DAA): 100 | COMBE Obs ([14]; 48 DAA): 100 | COMBE Obs ([14]; 61 DAA): 100

CCc1cccc(C)c1N(C(=O)CCl)C(C)COC (centres unmarked) [Metolachlor]
COMBE Obs ([15]; 16 DAA): 100 | COMBE Obs ([15]; 30 DAA): 100 | COMBE Obs ([15]; 44 DAA): 100 | COMBE Obs ([15]; 62 DAA): 100 | COMBE Obs ([15]; 91 DAA): 100 | BRADC Obs ([16]; 16 DAA): 97 | BRADC Obs ([16]; 30 DAA): 95 | BRADC Obs ([16]; 44 DAA): 90 | BRADC Obs ([16]; 62 DAA): 60 | BRADC Obs ([16]; 91 DAA): 40 | BIDPI Obs ([17]; 16 DAA): 40 | BIDPI Obs ([17]; 30 DAA): 40 | BIDPI Obs ([17]; 44 DAA): 40 | BIDPI Obs ([17]; 62 DAA): 0 | BIDPI Obs ([17]; 91 DAA): 0 | BRAPL Obs ([18]; 16 DAA): 97 | BRAPL Obs ([18]; 30 DAA): 90 | BRAPL Obs ([18]; 44 DAA): 90 | BRAPL Obs ([18]; 62 DAA): 60 | BRAPL Obs ([18]; 91 DAA): 40 | ZEAMI Obs ([19]; 16 DAA): 30 | ZEAMI Obs ([19]; 30 DAA): 20 | ZEAMI Obs ([19]; 44 DAA): 25 | ZEAMI Obs ([19]; 62 DAA): 20 | ZEAMI Obs ([19]; 91 DAA): 20 | SIDRH Obs [20, 25]: 90 | SIDRH Obs [20, 26]: 80 | SIDRH Obs [20, 27]: 60 | SIDRH Obs [20, 28]: 70 | SIDRH Obs [20, 29]: 90 | DIGHO Obs ([21]; 16 DAA): 100 | DIGHO Obs ([21]; 30 DAA): 100 | DIGHO Obs ([21]; 44 DAA): 100 | DIGHO Obs ([21]; 62 DAA): 100 | DIGHO Obs ([21]; 91 DAA): 95 | CCHEC Obs ([22]; 16 DAA): 95 | CCHEC Obs ([22]; 30 DAA): 97 | CCHEC Obs ([22]; 44 DAA): 97 | CCHEC Obs ([22]; 62 DAA): 80 | CCHEC Obs ([22]; 91 DAA): 100 | ELEIN Obs [23, 26]: 100 | ELEIN Obs [23, 27]: 100 | ELEIN Obs [23, 28]: 100 | IPOGF Obs [24, 25]: 70 | IPOGF Obs [24, 26]: 60 | IPOGF Obs [24, 27]: 40 | IPOGF Obs [24, 28]: 40 | IPOGF Obs [24, 29]: 40
